biological target: proteasomal β5 (Homo sapiens, UniProt P28074); test: not given; settings: Singh A.V. et al. 2011; cited from earlier work

Structure (SMILES) | selectivity for inhibition of the β5i over proteasomal β5
CC1=C(C(=O)N[C@H](C)C(=O)N[C@@H](Cc2c[nH]c3ccccc23)C(=O)N[C@@H](Cc2ccccc2)C(=O)[C@@]2(C)CO2)Cc2ccccc21 [PR-924] | > 100 fold

biological target: T1, β5i subunit of human immunoproteasome (Homo sapiens, UniProt P28062); test: Evaluation of reversible inhibitors of the β5i subunit (mode of inhibition and Ki, Dixon plots); format: biochemical; settings: competitive inhibitors (footnote b), Suc-LLVY-AMC 12.5 µM to 125 µM, immunoproteasome 0.25 µg/mL
T1 construct: purchased Boston Biochem, Inc., Cambridge, MA, USA
Method: The test compounds from the preliminary inhibitory assay with residual activities equal to or lower than 60% were characterized further by determining the mode of inhibition (competitive, non-competitive, uncompetitive, mixed inhibition). The assays were performed as described above. Five or more different concentrations of the test compounds ranging from 0.1 µM to 100 µM were used to determine the kinetic parameters at four different substrate concentrations (Suc-LLVY-AMC ranging from 12.5 µM to 125 µM). Final concentration of the immunoproteasome remained the same as before (0.25 µg/mL). The results obtained were analyzed as outlined above (see Equations 1 and 2), and two plots were derived using Microsoft Office Excel 2007:
- 1/v plotted against inhibitor concentration (Dixon plot; v- velocity, equal to the slope of the line k),
- [S]/v plotted against different concentrations of inhibitor ([S] equals substrate concentration).
The mode of inhibition was estimated from the relative positions of the lines obtained.

Structure (SMILES) | Ki
Cc1c(CCC(=O)O)c(=O)oc2cc3occ(-c4ccc(Br)cc4)c3cc12 | 137 µM
Cc1c(CN)c(=O)oc2cc3occ(-c4ccccc4)c3cc12 | 39.6 µM
Cc1c(CCC(=O)O)c(=O)oc2cc3occ(-c4ccccc4)c3cc12 | 1.6 µM
Cc1c(CC(=O)O)c(=O)oc2cc3occ(-c4ccccc4)c3cc12 | 2.4 µM
COc1cccc(-c2coc3cc4oc(=O)c(CCC(=O)O)c(C)c4cc23)c1 | 29.6 µM
COc1ccc(-c2coc3cc4oc(=O)c(CC(=O)O)c(C)c4cc23)cc1 | 8.2 µM
Cc1cc(-c2coc3cc4oc(=O)c(CC(=O)O)c(C)c4cc23)c(C)s1 | 36.5 µM
Cc1c(CCC(=O)O)c(=O)oc2cc3occ(-c4ccco4)c3cc12 | 116 µM
Cc1c(CC(=O)O)c(=O)oc2cc3occ(-c4ccco4)c3cc12 | 89.3 µM
O=C(O)Cc1cc2cc3c(-c4ccccc4)coc3cc2oc1=O | 3.8 µM
Cc1c(CC(=O)O)c(=O)oc2cc3occ(C4CCCCC4)c3cc12 | 198 µM
Cc1cc(-c2coc3cc4oc(=O)c(CC(=O)O)c(C)c4cc23)c(C)o1 | 351 µM
COc1cccc(-c2coc3cc4oc(=O)c(CC(=O)O)c(C)c4cc23)c1 | 7 µM
Cc1cc(-c2coc3cc4oc(=O)c(CCC(=O)O)c(C)c4cc23)c(C)s1 | 52.3 µM
Cc1c(CC(=O)O)c(=O)oc2cc3occ(-c4ccc(Br)cc4)c3cc12 | 12.7 µM

biological target: T1, β5i subunit of human immunoproteasome; test: Preliminary evaluation of inhibition of the β5i subunit (residual activity, Suc-LLVY-AMC fluorescence); format: biochemical; settings: test compound 10 µM, 30 min preincubation at 37 °C, Suc-LLVY-AMC 25 µM, immunoproteasome 0.25 µg/mL
Method: Appropriate stock solutions (mM concentration) of the test compounds were prepared in DMSO. Subsequent dilutions of the compounds, as well as the immunoproteasome and the substrate were prepared in buffered solution (50 mM Tris-HCI (pH 8.0), 0.5 mM EDTA, 0.01% SDS). To a 96-well black microtiter plate, human immunoproteasome (final concentration, 0.25 µg/mL) (Boston Biochem, Inc., Cambridge, MA, USA) was added, followed by either test compounds (10 µM final concentration) or buffered solution (with and without the DMSO), which accounted for the control group. Microtiter plate was covered with aluminum foil and incubated at 37 °C for 30 minutes with medium agitation. The reaction was initiated by the addition of β5- and β5i-selective substrate Suc-LLVY-AMC (25 µM final concentration). The reaction progress was recorded on the BioTek Synergy HT microplate reader by monitoring fluorescence at 460 nm (λex = 360 nm) every 5 minutes for 120 min at 37 °C. At least two independent experiments were performed. The initial linear ranges (between 20th and 60th minute) were used to calculate the slope of the line (k) by dividing the difference of fluorescence intensities (F) with the time difference (t) (Equation 1). The residual activities in percentages were calculated from the slopes obtained (Equation 2). The calculations were performed in Microsoft Office Excel 2007. k = ΔF/Δt [formula] • k slope of the line • F fluorescence intensity • t time (min) Residualactivityin% = kt /knt *100% [formula] • kt slope of the line for the treated enzyme • knt slope of the line for the non-treated enzyme

Structure (SMILES) | RA (%)
Cc1c(CC(=O)O)c(=O)oc2cc3occ(C(C)(C)C)c3cc12 [n=1, 1R=t-Bu] | 85%
Cc1cc(-c2coc3cc4oc(=O)c(CCC(=O)O)c(C)c4cc23)c(C)o1 | 100%
Cc1coc2cc3oc(=O)c(CC(=O)O)c(C)c3cc12 [n=1, 1R=Me] | 88%
Cc1c(CCC(=O)O)c(=O)oc2cc3occ(C4CCCCC4)c3cc12 | 102%
Cc1c(C(=O)O)c(=O)oc2cc3occ(-c4ccccc4)c3cc12 | 82%
Cc1coc2cc3oc(=O)c(CCC(=O)O)c(C)c3cc12 [n=2, 1R=Me] | 94%
Cc1c(CCC(=O)O)c(=O)oc2cc3occ(C(C)(C)C)c3cc12 [n=2, 1R=t-Bu] | 83%
COc1ccc(-c2coc3cc4oc(=O)c(CCC(=O)O)c(C)c4cc23)cc1 | 84%
Cc1c(N)c(=O)oc2cc3occ(-c4ccccc4)c3cc12 | 88%

system: MHC-I receptors on the surface; test: not given; settings: Muchamuel T. et al. 2009; cited from earlier work

Structure (SMILES) | reduction of the expression of MHC-I receptors on the surface to
COc1ccc(C[C@H](NC(=O)[C@H](C)NC(=O)CN2CCOCC2)C(=O)N[C@@H](Cc2ccccc2)C(=O)[C@@]2(C)CO2)cc1 [PR-957] | 50%

system: normal peripheral blood mononuclear cells; test: not given; settings: exposure to high (up to 20 µM) concentrations; cited from earlier work

Structure (SMILES) | toxicities in normal peripheral blood mononuclear cells
CC1=C(C(=O)N[C@H](C)C(=O)N[C@@H](Cc2c[nH]c3ccccc23)C(=O)N[C@@H](Cc2ccccc2)C(=O)[C@@]2(C)CO2)Cc2ccccc21 [PR-924] | no significant toxicities

system: other catalytic subunits (β1, β1i, β2, β2i); test: not given; settings: cited from earlier work

Structure (SMILES) | inhibition of other catalytic subunits
CC1=C(C(=O)N[C@H](C)C(=O)N[C@@H](Cc2c[nH]c3ccccc23)C(=O)N[C@@H](Cc2ccccc2)C(=O)[C@@]2(C)CO2)Cc2ccccc21 [PR-924] | little or no inhibition

biological target: β5i (Homo sapiens, UniProt P28062); test: not given; settings: inhibition of the β5i; Singh A.V. et al. 2011; cited from earlier work

Structure (SMILES) | IC50
CC1=C(C(=O)N[C@H](C)C(=O)N[C@@H](Cc2c[nH]c3ccccc23)C(=O)N[C@@H](Cc2ccccc2)C(=O)[C@@]2(C)CO2)Cc2ccccc21 [PR-924] | 0.022 µM

biological target: T1, β5i subunit of human immunoproteasome; test: Evaluation of irreversible inhibitors of the β5i subunit (IC50); format: biochemical; settings: Suc-LLVY-AMC 25 µM, immunoproteasome 0.25 µg/mL, fluorescence increase between 20th and 60th minute
Method: The test compounds with time-dependent inhibitory activities were treated and evaluated as irreversible inhibitors. The assay was performed as described in the 44 section Preliminary evaluation of inhibition of the β5i subunit of human immunoproteasome. At least seven different concentrations of the test compounds ranging from 0.001 µM to 50 µM were used. The final concentrations of the substrate Suc-LLVY-AMC and the immunoproteasome were 25 µM and 0.25 µg/mL, respectively. At least two independent experiments were performed. The increases in fluorescence intensity between 20th and 60th minute and appropriate test compounds concentrations were analyzed with GraphPad Prism 5.01 to determine the IC50 values. Table 1. Inhibitory potencies of reversible psoralen-based inhibitors against the β5i subunit of the human immunoproteasome. The following compounds are not part of the invention.

Structure (SMILES) | IC50
Cc1c(CCC(=O)ON2C(=O)CCC2=O)c(=O)oc2cc3occ(-c4ccccc4)c3cc12 | 0.09 µM
C=CC(=O)Nc1c(C)c2cc3c(-c4ccccc4)coc3cc2oc1=O | 20.5 µM
Cc1c(CC(=O)ON2C(=O)CCC2=O)c(=O)oc2cc3occ(-c4ccccc4)c3cc12 | 6.4 µM

Reference: patent EP3256120B1, “PSORALEN DERIVATIVES AS NON-PEPTIDIC INHIBITORS OF CHYMOTRYPSIN-LIKE ACTIVITY OF THE IMMUNOPROTEASOME” (Univerza v Ljubljani, priority 2015, dated 2016)
